Reference: US20230093099A1, “COMPOUNDS AND METHODS OF TREATING CANCERS” (CULLGEN (SHANGHAI), INC., priority 2019, published 2023)

System: RS4;11 cells
Experiment: Cell viability assay (CellTiter-Glo) in RS4;11 cells
Type: cell-based
Details: Homo sapiens, 72 h; RS4;11 ALL cells treated for three days; read-out: cell viability inhibition IC50
Summary of the method: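 Three-day compound treatment of RS4;11 ALL cells (5000/well, 3-fold dilution series of 8 or 12 points), with IC50 from a nonlinear least-squares fit to CellTiter-Glo viability data.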

`CS(=O)(=O)c1ccc(-c2cccc3nc(Nc4ccc(N5CCN(C(=O)CCCCCCNc6ccc7c(c6)C(=O)N(C6CCC(=O)NC6=O)C7=O)CC5)cc4)nn23)cc1` (stereo not drawn) [JA-199, 2-(2,6-dioxopiperidin-3-yl)-5-((7-(4-(4-((5-(4-(methylsulfonyl)phenyl)-[1,2,4]triazolo[1,5-a]pyridin-2-yl)amino)phenyl)piperazin-1-yl)-7-oxoheptyl)amino)isoindoline-1,3-dione] and `Cc1cnc(Nc2ccc(N3CCN(C(=O)CCCCCCCNc4ccc5c(c4)C(=O)N(C4CCC(=O)NC4=O)C5=O)CC3)cc2)nc1Nc1cccc(S(=O)(=O)NC(C)(C)C)c1` (stereo not drawn) [JA-231, N-(tert-butyl)-3-((2-((4-(4-(8-((2-(2,6-dioxopiperidin-3-yl)-1,3-dioxoisoindolin-5-yl)amino)octanoyl)piperazin-1-yl)phenyl)amino)-5-methylpyrimidin-4-yl)amino)benzenesulfonamide] cannot be ordered by IC50: less than 0.1 µM for the first, less than 0.1 µM for the second.

Same assay, conditions: Homo sapiens, 72 h; RS4;11 cells; cell viability, 3 days, CellTiter-Glo; read-out: IC50

`Cc1ncsc1-c1ccc(CNC(=O)[C@@H]2C[C@@H](O)CN2C(=O)[C@@H](NC(=O)CCCCNC(=O)CN2CCC(n3cc(-c4cnc5cccc(-c6cc(F)c(CN7CCOCC7)c(F)c6)c5n4)cn3)CC2)C(C)(C)C)cc1` [JA-168, (2S,4R)-1-((S)-2-(5-(2-(4-(4-(8-(3,5-Difluoro-4-(morpholinomethyl)phenyl)quinoxalin-2-yl)-1H-pyrazol-1-yl)piperidin-1-yl)acetamido)pentanamido)-3,3-dimethylbutanoyl)-4-hydroxy-N-(4-(4-methylthiazol-5-yl)benzyl)pyrrolidine-2-carboxamide] and `Cc1ncsc1-c1ccc(CNC(=O)[C@@H]2C[C@@H](O)CN2C(=O)[C@@H](NC(=O)CCCCCC(=O)N2CCC(n3cc(-c4cnc5cccc(-c6cc(F)c(CN7CCOCC7)c(F)c6)c5n4)cn3)CC2)C(C)(C)C)cc1` [JA-048, (2S,4R)-1-[(2S)-2-[[7-[4-[4-[8-[3,5-Difluoro-4-(morpholinomethyl)phenyl]quinoxalin-2-yl]pyrazol-1-yl]-1-piperidyl]-7-oxo-heptanoyl]amino]-3,3-dimethyl-butanoyl]-4-hydroxy-N-[[4-(4-methylthiazol-5-yl)phenyl]methyl]pyrrolidine-2-carboxamide] cannot be ordered by IC50: greater than 10 µM for the first, greater than 10 µM for the second.

`Cc1ncsc1-c1ccc(CNC(=O)[C@@H]2C[C@@H](O)CN2C(=O)[C@@H](NC(=O)CCCC(=O)N2CCC(n3cc(-c4cnc5cccc(-c6cc(F)c(CN7CCOCC7)c(F)c6)c5n4)cn3)CC2)C(C)(C)C)cc1` [JA-046, (2S,4R)-1-[(2S)-2-[[5-[4-[4-[8-[3,5-Difluoro-4-(morpholinomethyl)phenyl]quinoxalin-2-yl]pyrazol-1-yl]-1-piperidyl]-5-oxo-pentanoyl]amino]-3,3-dimethyl-butanoyl]-4-hydroxy-N-[[4-(4-methylthiazol-5-yl)phenyl]methyl]pyrrolidine-2-carboxamide] and `O=C1CCC(N2C(=O)c3ccc(NCCCC(=O)N4CCC(n5cc(-c6cnc7cccc(-c8cc(F)c(CN9CCOCC9)c(F)c8)c7n6)cn5)CC4)cc3C2=O)C(=O)N1` (stereo not drawn) [JA-192, 5-((4-(4-(4-(8-(3,5-Difluoro-4-(morpholinomethyl)phenyl)quinoxalin-2-yl)-1H-pyrazol-1-yl)piperidin-1-yl)-4-oxobutyl)amino)-2-(2,6-dioxopiperidin-3-yl)isoindoline-1,3-dione] cannot be ordered by IC50: greater than 10 µM for the first, greater than 10 µM for the second.

Going from `Cc1cnc(Nc2ccc(N3CCN(CC(=O)NCCCC(=O)N[C@H](C(=O)N4C[C@H](O)C[C@H]4C(=O)NCc4ccc(-c5scnc5C)cc4)C(C)(C)C)CC3)cc2)nc1Nc1cccc(S(=O)(=O)NC(C)(C)C)c1` [JA-099, (2S,4R)-1-((S)-2-(4-(2-(4-(4-((4-((3-(N-(tert-Butyl)sulfamoyl)phenyl)amino)-5-methylpyrimidin-2-yl)amino)phenyl)piperazin-1-yl)acetamido)butanamido)-3,3-dimethylbutanoyl)-4-hydroxy-N-(4-(4-methylthiazol-5-yl)benzyl)pyrrolidine-2-carboxamide] to `Cc1cnc(Nc2ccc(N3CCN(C(=O)CCOCCOCCOCCOCCC(=O)N[C@H](C(=O)N4C[C@H](O)C[C@H]4C(=O)NCc4ccc(-c5scnc5C)cc4)C(C)(C)C)CC3)cc2)nc1Nc1cccc(S(=O)(=O)NC(C)(C)C)c1` [JA-035, (2S,4R)-1-((S)-2-(tert-Butyl)-19-(4-(4-((4-((3-(N-(tert-butyl)sulfamoyl)phenyl)amino)-5-methylpyrimidin-2-yl)amino)phenyl)piperazin-1-yl)-4,19-dioxo-7,10,13,16-tetraoxa-3-azanonadecanoyl)-4-hydroxy-N-(4-(4-methylthiazol-5-yl)benzyl)pyrrolidine-2-carboxamide], the IC50 rises from 3.7 µM to greater than 10 µM.

Compared with `Cc1cnc(Nc2ccc(N3CCN(CC(=O)NCCNc4cccc5c4C(=O)N(C4CCC(=O)NC4=O)C5=O)CC3)cc2)nc1Nc1cccc(S(=O)(=O)NC(C)(C)C)c1` (stereo not drawn) [JA-090, 2-(4-(4-((4-((3-(N-(tert-Butyl)sulfamoyl)phenyl)amino)-5-methylpyrimidin-2-yl)amino)phenyl)piperazin-1-yl)-N-(2-((2-(2,6-dioxopiperidin-3-yl)-1,3-dioxoisoindolin-4-yl)amino)ethyl)acetamide], `Cc1cnc(Nc2ccc(N3CCN(CC(=O)NCCCCCCCCNc4cccc5c4C(=O)N(C4CCC(=O)NC4=O)C5=O)CC3)cc2)nc1Nc1cccc(S(=O)(=O)NC(C)(C)C)c1` (stereo not drawn) [JA-096, 2-(4-(4-((4-((3-(N-(tert-Butyl)sulfamoyl)phenyl)amino)-5-methylpyrimidin-2-yl)amino)phenyl)piperazin-1-yl)-N-(8-((2-(2,6-dioxopiperidin-3-yl)-1,3-dioxoisoindolin-4-yl)amino)octyl)acetamide] is 22-fold lower in IC50: 3.48 µM for the first, 0.159 µM for the second.

First: O=C1CCC(N2C(=O)c3ccc(NCCC(=O)N4CCC(n5cc(-c6cnc7cccc(-c8cc(F)c(CN9CCOCC9)c(F)c8)c7n6)cn5)CC4)cc3C2=O)C(=O)N1 (stereo not drawn) [JA-190, 5-((3-(4-(4-(8-(3,5-Difluoro-4-(morpholinomethyl)phenyl)quinoxalin-2-yl)-1H-pyrazol-1-yl)piperidin-1-yl)-3-oxopropyl)amino)-2-(2,6-dioxopiperidin-3-yl)isoindoline-1,3-dione]
Second: O=C1CCC(N2C(=O)c3ccc(CCCCCCC(=O)N4CCC(n5cc(-c6cnc7cccc(-c8cc(F)c(CN9CCOCC9)c(F)c8)c7n6)cn5)CC4)cc3C2=O)C(=O)N1 (stereo not drawn) [JA-257, 5-(7-(4-(4-(8-(3,5-Difluoro-4-(morpholinomethyl)phenyl)quinoxalin-2-yl)-1H-pyrazol-1-yl)piperidin-1-yl)-7-oxoheptyl)-2-(2,6-dioxopiperidin-3-yl)isoindoline-1,3-dione]
The IC50 of the first is 38-fold higher: 5.16 µM for the first, 0.137 µM for the second. The second is the more potent here.

First: CS(=O)(=O)c1ccc(-c2cccc3nc(Nc4ccc(N5CCN(C(=O)CCCCCCNc6ccc7c(c6)C(=O)N(C6CCC(=O)NC6=O)C7=O)CC5)cc4)nn23)cc1 (stereo not drawn) [JA-199, 2-(2,6-dioxopiperidin-3-yl)-5-((7-(4-(4-((5-(4-(methylsulfonyl)phenyl)-[1,2,4]triazolo[1,5-a]pyridin-2-yl)amino)phenyl)piperazin-1-yl)-7-oxoheptyl)amino)isoindoline-1,3-dione]
Second: Cn1c(=O)n(C2CCC(=O)NC2=O)c2ccc(NCCCCCC(=O)N3CCN(c4ccc(Nc5nc6cccc(-c7ccc(S(C)(=O)=O)cc7)n6n5)cc4)CC3)cc21 (stereo not drawn) [JA-292, 3-(3-Methyl-5-((6-(4-(4-((5-(4-(methylsulfonyl)phenyl)-[1,2,4]triazolo[1,5-a]pyridin-2-yl)amino)phenyl)piperazin-1-yl)-6-oxohexyl)amino)-2-oxo-2,3-dihydro-1H-benzo[d]imidazol-1-yl)piperidine-2,6-dione]
The IC50 of the first is lower: 0.0325 µM for the first, greater than 0.5 µM for the second. The first is the more potent here.

`Cc1ncsc1-c1ccc(CNC(=O)[C@@H]2C[C@@H](O)CN2C(=O)[C@@H](NC(=O)CNC(=O)CN2CCN(c3ccc(Nc4nc5cccc(-c6ccc(S(C)(=O)=O)cc6)n5n4)cc3)CC2)C(C)(C)C)cc1` [JA-126, (2S,4R)-1-((S)-3,3-Dimethyl-2-(2-(2-(4-(4-((5-(4-(methylsulfonyl)phenyl)-[1,2,4]triazolo[1,5-a]pyridin-2-yl)amino)phenyl)piperazin-1-yl)acetamido)acetamido)butanoyl)-4-hydroxy-N-(4-(4-methylthiazol-5-yl)benzyl)pyrrolidine-2-carboxamide] and `Cc1ncsc1-c1ccc(CNC(=O)[C@@H]2C[C@@H](O)CN2C(=O)[C@@H](NC(=O)COCCNC(=O)CN2CCN(c3ccc(Nc4nc5cccc(-c6ccc(S(C)(=O)=O)cc6)n5n4)cc3)CC2)C(C)(C)C)cc1` [JA-132, (2S,4R)-1-((S)-3,3-Dimethyl-2-(2-(2-(2-(4-(4-((5-(4-(methylsulfonyl)phenyl)-[1,2,4]triazolo[1,5-a]pyridin-2-yl)amino)phenyl)piperazin-1-yl)acetamido)ethoxy)acetamido)butanoyl)-4-hydroxy-N-(4-(4-methylthiazol-5-yl)benzyl)pyrrolidine-2-carboxamide] cannot be ordered by IC50: greater than 10 µM for the first, greater than 10 µM for the second.

Going from `O=C(CN1CCC(n2cc(-c3cnc4cccc(-c5cc(F)c(CN6CCOCC6)c(F)c5)c4n3)cn2)CC1)NCCOCCOCCNc1cccc2c1C(=O)N(C1CCC(=O)NC1=O)C2=O` (stereo not drawn) [JA-140, 2-[4-[4-[8-[3,5-Difluoro-4-(morpholinomethyl)phenyl]quinoxalin-2-yl]pyrazol-1-yl]-1-piperidyl]-N-[2-[2-[2-[[2-(2,6-dioxo-3-piperidyl)-1,3-dioxo-isoindolin-4-yl]amino]ethoxy]ethoxy]ethyl]acetamide] to `O=C1CCC(N2C(=O)c3cccc(NCCCCCC(=O)N4CCC(n5cc(-c6cnc7cccc(-c8cc(F)c(CN9CCOCC9)c(F)c8)c7n6)cn5)CC4)c3C2=O)C(=O)N1` (stereo not drawn) [JA-001, 4-[[6-[4-[4-[8-[3,5-Difluoro-4-(morpholinomethyl)phenyl]quinoxalin-2-yl]pyrazol-1-yl]-1-piperidyl]-6-oxo-hexyl]amino]-2-(2,6-dioxo-3-piperidyl)isoindoline-1,3-dione], the IC50 falls from greater than 10 µM to 3.17 µM.

Compared with `Cc1cnc(Nc2ccc(N3CCN(CC(=O)NCCCCCCCCNc4ccc5c(c4)C(=O)N(C4CCC(=O)NC4=O)C5=O)CC3)cc2)nc1Nc1cccc(S(=O)(=O)NC(C)(C)C)c1` (stereo not drawn) [JA-247, 2-(4-(4-((4-((3-(N-(tert-butyl)sulfamoyl)phenyl)amino)-5-methylpyrimidin-2-yl)amino)phenyl)piperazin-1-yl)-N-(8-((2-(2,6-dioxopiperidin-3-yl)-1,3-dioxoisoindolin-5-yl)amino)octyl)acetamide], `Cc1cnc(Nc2ccc(N3CCN(C(=O)CCCCCCCNc4ccc5c(c4)C(=O)N(C4CCC(=O)NC4=O)C5=O)CC3)cc2)nc1Nc1cccc(S(=O)(=O)NC(C)(C)C)c1` (stereo not drawn) [JA-231, N-(tert-butyl)-3-((2-((4-(4-(8-((2-(2,6-dioxopiperidin-3-yl)-1,3-dioxoisoindolin-5-yl)amino)octanoyl)piperazin-1-yl)phenyl)amino)-5-methylpyrimidin-4-yl)amino)benzenesulfonamide] is 6-fold lower in IC50: 0.484 µM for the first, 0.0802 µM for the second. The second is the more potent here.

Compound `CS(=O)(=O)c1ccc(-c2cccc3nc(Nc4ccc(N5CCN(C(=O)CCCCCCc6ccc7c(c6)CN(C6CCC(=O)NC6=O)C7=O)CC5)cc4)nn23)cc1` (stereo not drawn) [JA-251, 3-(5-(7-(4-(4-((5-(4-(Methylsulfonyl)phenyl)-[1,2,4]triazolo[1,5-a]pyridin-2-yl)amino)phenyl)piperazin-1-yl)-7-oxoheptyl)-1-oxoisoindolin-2-yl)piperidine-2,6-dione] has an IC50 of 0.337 µM.
